Source: article PMC5218480 (PLoS ONE, 2017)

System: MV-4-11 cells
Experiment: Gene expression microarray analysis (Affymetrix PrimeView) and GSEA
Type: cell-based, human
Parameters: RFU PODN (11730768_x_at) / Fold change /veh PODN (11730768_x_at) / RFU LINC00158 (11744669_a_at) / Fold change /veh LINC00158 (11744669_a_at) / RFU DUSP10 (11751237_a_at) / Fold change /veh DUSP10 (11751237_a_at) / RFU ID3 (11757404_x_at) / Fold change /veh ID3 (11757404_x_at) / RFU PLEKHG5 (11737974_s_at) / Fold change /veh PLEKHG5 (11737974_s_at) / RFU LRRC4B (11730491_at) / Fold change /veh LRRC4B (11730491_at) / RFU GIMAP4 (11747438_a_at) / Fold change /veh GIMAP4 (11747438_a_at) / RFU KRT8 (11758183_x_at) / Fold change /veh KRT8 (11758183_x_at) / RFU CNN1 (11734310_a_at) / Fold change /veh CNN1 (11734310_a_at) / RFU VPS37D (11726825_at) / Fold change /veh VPS37D (11726825_at) / RFU C10orf10 (11716522_x_at) / Fold change /veh C10orf10 (11716522_x_at) / RFU KIR2DL2 /// KIR2DL4 /// KIR2DL5A /// KIR2DL5B /// KIR2DS1 /// KIR2DS2 /// KIR2DS3 /// KIR2DS4 /// KIR3DL3 /// KIR3DL3 /// KIR3DS1 (11738374_at) / Fold change /veh KIR2DL2 /// KIR2DL4 /// KIR2DL5A /// KIR2DL5B /// KIR2DS1 /// KIR2DS2 /// KIR2DS3 /// KIR2DS4 /// KIR3DL3 /// KIR3DL3 /// KIR3DS1 (11738374_at) / RFU C1QL1 (11718748_at) / Fold change /veh C1QL1 (11718748_at) / RFU TMPRSS4 (11747572_a_at) / Fold change /veh TMPRSS4 (11747572_a_at) / RFU HAMP (11756126_x_at) / Fold change /veh HAMP (11756126_x_at) / RFU RNFT2 (11725882_a_at) / Fold change /veh RNFT2 (11725882_a_at) / RFU NR4A2 (11747474_a_at) / Fold change /veh NR4A2 (11747474_a_at) / RFU ABCC12 (11746883_a_at) / Fold change /veh ABCC12 (11746883_a_at) / RFU TMEM136 (11760407_x_at) / Fold change /veh TMEM136 (11760407_x_at) / RFU CLDN22 /// WWC2 (11732394_at) / Fold change /veh CLDN22 /// WWC2 (11732394_at) / RFU HLA-DPB1 (11760878_x_at) / Fold change /veh HLA-DPB1 (11760878_x_at) / RFU SPINT1 (11716480_a_at) / Fold change /veh SPINT1 (11716480_a_at) / RFU GAP43 (11754022_s_at) / Fold change /veh GAP43 (11754022_s_at) / RFU A4GNT (11735810_at) / Fold change /veh A4GNT (11735810_at) / RFU PRB3 (11715151_x_at) / Fold change /veh PRB3 (11715151_x_at) / RFU TUBB4B (11761932_at) / Fold change /veh TUBB4B (11761932_at) / RFU CAPN14 (11732068_a_at) / Fold change /veh CAPN14 (11732068_a_at) / RFU TMCC2 (11721928_a_at) / Fold change /veh TMCC2 (11721928_a_at) / RFU IRGQ (11745062_a_at) / Fold change /veh IRGQ (11745062_a_at) / RFU FAM174B (11720279_a_at) / Fold change /veh FAM174B (11720279_a_at) / RFU TMPRSS4 (11748680_a_at) / Fold change /veh TMPRSS4 (11748680_a_at) / RFU FAM212B (11763350_a_at) / Fold change /veh FAM212B (11763350_a_at) / RFU PLEKHG5 (11743358_a_at) / Fold change /veh PLEKHG5 (11743358_a_at) / RFU ZSCAN30 (11745921_a_at) / Fold change /veh ZSCAN30 (11745921_a_at) / RFU CMKLR1 (11741424_a_at) / Fold change /veh CMKLR1 (11741424_a_at) / RFU LOC101060620 /// MAPK8IP1 (11723275_at) / Fold change /veh LOC101060620 /// MAPK8IP1 (11723275_at) / RFU SPTSSB (11747773_x_at) / Fold change /veh SPTSSB (11747773_x_at) / RFU PRSS12 (11739890_at) / Fold change /veh PRSS12 (11739890_at) / RFU BIN1 (11741810_x_at) / Fold change /veh BIN1 (11741810_x_at) / RFU WNT11 (11732464_a_at) / Fold change /veh WNT11 (11732464_a_at) / RFU C10orf10 (11716521_a_at) / Fold change /veh C10orf10 (11716521_a_at) / RFU C5orf56 (11738089_at) / Fold change /veh C5orf56 (11738089_at) / RFU CYB561 (11721691_x_at) / Fold change /veh CYB561 (11721691_x_at) / RFU ANKRD19P (11752326_a_at) / Fold change /veh ANKRD19P (11752326_a_at) / RFU OR2T12 /// OR2T33 /// OR2T8 (11738714_s_at) / Fold change /veh OR2T12 /// OR2T33 /// OR2T8 (11738714_s_at) / RFU VCAN (11748164_a_at) / Fold change /veh VCAN (11748164_a_at) / RFU JSRP1 (11732532_at) / Fold change /veh JSRP1 (11732532_at) / RFU KRTAP10-11 (11738290_x_at) / Fold change /veh KRTAP10-11 (11738290_x_at) / RFU MYO3A (11730013_a_at) / Fold change /veh MYO3A (11730013_a_at) / RFU EBF3 (11725865_a_at) / Fold change /veh EBF3 (11725865_a_at) / RFU CAMK2N1 (11719241_x_at) / Fold change /veh CAMK2N1 (11719241_x_at) / RFU C5orf56 (11738088_a_at) / Fold change /veh C5orf56 (11738088_a_at) / RFU OLFML3 (11715873_a_at) / Fold change /veh OLFML3 (11715873_a_at) / RFU LOC100653217 /// NTM (11731650_a_at) / Fold change /veh LOC100653217 /// NTM (11731650_a_at) / RFU MAPK11 (11762145_a_at) / Fold change /veh MAPK11 (11762145_a_at) / RFU FIZ1 (11724087_x_at) / Fold change /veh FIZ1 (11724087_x_at) / RFU OASL (11726364_x_at) / Fold change /veh OASL (11726364_x_at) / RFU SOX15 (11748057_x_at) / Fold change /veh SOX15 (11748057_x_at) / RFU CD79A (11719716_a_at) / Fold change /veh CD79A (11719716_a_at) / RFU HIST1H1D (11736915_at) / Fold change /veh HIST1H1D (11736915_at) / RFU CASKIN2 (11723855_a_at) / Fold change /veh CASKIN2 (11723855_a_at) / RFU LOC730098 (11760151_x_at) / Fold change /veh LOC730098 (11760151_x_at) / RFU OR4N2 (11742367_at) / Fold change /veh OR4N2 (11742367_at) / RFU PRRT2 (11749266_a_at) / Fold change /veh PRRT2 (11749266_a_at) / RFU SNX32 (11753110_a_at) / Fold change /veh SNX32 (11753110_a_at) / RFU CDHR5 (11726645_a_at) / Fold change /veh CDHR5 (11726645_a_at) / RFU RCAN1 (11760418_a_at) / Fold change /veh RCAN1 (11760418_a_at) / RFU FAM167A (11723789_a_at) / Fold change /veh FAM167A (11723789_a_at) / RFU FAM26E (11764081_at) / Fold change /veh FAM26E (11764081_at) / RFU ISYNA1 (11749810_s_at) / Fold change /veh ISYNA1 (11749810_s_at) / RFU ACY1 (11761880_at) / Fold change /veh ACY1 (11761880_at) / RFU 11764098_at / Fold change /veh 11764098_at / RFU SAMD14 (11745864_x_at) / Fold change /veh SAMD14 (11745864_x_at) / RFU NPB (11741838_a_at) / Fold change /veh NPB (11741838_a_at) / RFU TMPRSS6 (11731388_a_at) / Fold change /veh TMPRSS6 (11731388_a_at) / RFU KRTAP10-2 (11738614_at) / Fold change /veh KRTAP10-2 (11738614_at) / RFU ARHGAP8 /// PRR5-ARHGAP8 (11727945_x_at) / Fold change /veh ARHGAP8 /// PRR5-ARHGAP8 (11727945_x_at) / RFU KRTAP5-7 /// NADSYN1 (11734609_at) / Fold change /veh KRTAP5-7 /// NADSYN1 (11734609_at) / RFU RASL12 (11751679_a_at) / Fold change /veh RASL12 (11751679_a_at) / RFU CDKN2B (11736163_a_at) / Fold change /veh CDKN2B (11736163_a_at) / RFU PRF1 (11729649_at) / Fold change /veh PRF1 (11729649_at) / RFU, ZNF638 /// ZNF638-IT1 / Fold change vs veh, ZNF638 /// ZNF638-IT1 / RFU, PANK3 / Fold change vs veh, PANK3 / RFU, SH3YL1 / Fold change vs veh, SH3YL1 / RFU, ZEB2 / Fold change vs veh, ZEB2 / RFU, NRIP1 / Fold change vs veh, NRIP1 / RFU, PTTG1IP / Fold change vs veh, PTTG1IP / RFU, CAPN2 / Fold change vs veh, CAPN2 / RFU, MED14 / Fold change vs veh, MED14 / RFU, SNORA58 / Fold change vs veh, SNORA58 / RFU, C1orf63 / Fold change vs veh, C1orf63 / RFU, LRRFIP1 / Fold change vs veh, LRRFIP1 / RFU, NDUFAF7 / Fold change vs veh, NDUFAF7 / RFU, SLC12A2 / Fold change vs veh, SLC12A2 / RFU, IBTK / Fold change vs veh, IBTK / RFU, ESF1 / Fold change vs veh, ESF1 / Fold change vs veh, TMEM50B / RFU, TAOK1 / Fold change vs veh, TAOK1 / RFU, ACBD3 / Fold change vs veh, ACBD3 / RFU, TMA16 / Fold change vs veh, TMA16 / RFU, RWDD3 / Fold change vs veh, RWDD3 / RFU, BCAT1 / Fold change vs veh, BCAT1 / RFU, EDEM3 / Fold change vs veh, EDEM3 / RFU, TMEM33 / Fold change vs veh, TMEM33 / RFU, WDR75 / Fold change vs veh, WDR75 / RFU, AHCTF1 / Fold change vs veh, AHCTF1 / RFU, TFRC / Fold change vs veh, TFRC / RFU, ZDHHC17 / Fold change vs veh, ZDHHC17 / RFU, NOM1 / Fold change vs veh, NOM1 / RFU, ARL8B / Fold change vs veh, ARL8B / RFU, ZBTB11 / Fold change vs veh, ZBTB11 / RFU, TAMM41 / Fold change vs veh, TAMM41 / RFU, KIAA1704 /// LOC100996395 / Fold change vs veh, KIAA1704 /// LOC100996395 / RFU, ING1 / Fold change vs veh, ING1 / RFU, TRMT61B / Fold change vs veh, TRMT61B / RFU, FUBP3 / Fold change vs veh, FUBP3 / RFU, TP53 / Fold change vs veh, TP53 / RFU, TNKS2 / Fold change vs veh, TNKS2 / RFU, ZFP14 / Fold change vs veh, ZFP14 / RFU, ACTR2 / Fold change vs veh, ACTR2 / RFU, PPP3R1 / Fold change vs veh, PPP3R1 / RFU, PIK3R1 / Fold change vs veh, PIK3R1 / RFU, HNRNPA1 / Fold change vs veh, HNRNPA1 / RFU, RNF170 / Fold change vs veh, RNF170 / RFU, ZNF28 / Fold change vs veh, ZNF28 / RFU, RNGTT / Fold change vs veh, RNGTT / RFU, OGT / Fold change vs veh, OGT / RFU, BRD1 / Fold change vs veh, BRD1 / RFU, MARS / Fold change vs veh, MARS / RFU, ZNF655 / Fold change vs veh, ZNF655 / RFU, FAHD1 / Fold change vs veh, FAHD1 / RFU, BDP1 / Fold change vs veh, BDP1 / RFU, LRRCC1 / Fold change vs veh, LRRCC1 / RFU, ARID1A / Fold change vs veh, ARID1A / RFU, ZNF146 / Fold change vs veh, ZNF146 / RFU, ZNF330 / Fold change vs veh, ZNF330 / RFU, GPN3 / Fold change vs veh, GPN3 / RFU, C9orf123 / Fold change vs veh, C9orf123 / RFU, N4BP2L2 / Fold change vs veh, N4BP2L2 / RFU, ARFIP1 / Fold change vs veh, ARFIP1 / RFU, FAM179B / Fold change vs veh, FAM179B / RFU, BCL10 / Fold change vs veh, BCL10 / RFU, UHRF1BP1L / Fold change vs veh, UHRF1BP1L / RFU, BET1 / Fold change vs veh, BET1 / RFU, CNOT2 / Fold change vs veh, CNOT2 / RFU, ZNF268 / Fold change vs veh, ZNF268 / Fold change vs veh, ZNF507 / RFU, DGCR2 / Fold change vs veh, DGCR2 / RFU, WDSUB1 / Fold change vs veh, WDSUB1 / Fold change vs veh, HSP90B1 /// MIR3652 / RFU, ADSS / Fold change vs veh, ADSS / RFU, GK / Fold change vs veh, GK / RFU, ZNF148 / Fold change vs veh, ZNF148 / RFU, TAF9 / Fold change vs veh, TAF9 / RFU, SLC1A5 / Fold change vs veh, SLC1A5 / RFU, SLMO2 / Fold change vs veh, SLMO2 / RFU, ABCC4 / Fold change vs veh, ABCC4 / RFU, LOC101060439 /// RAP1B / Fold change vs veh, LOC101060439 /// RAP1B / RFU, RFX7 / Fold change vs veh, RFX7 / RFU, GTPBP10 / Fold change vs veh, GTPBP10 / RFU, CNEP1R1 / Fold change vs veh, CNEP1R1 / RFU, BIVM-ERCC5 /// ERCC5 / Fold change vs veh, BIVM-ERCC5 /// ERCC5 / RFU, ILF3 / Fold change vs veh, ILF3 / RFU 11762660_at / Fold change /veh 11762660_at / RFU VCAN (11757783_s_at) / Fold change /veh VCAN (11757783_s_at) / RFU DDX43 (11728927_at) / Fold change /veh DDX43 (11728927_at) / RFU KRT8 (11758188_x_at) / Fold change /veh KRT8 (11758188_x_at) / RFU NKD1 (11759106_at) / Fold change /veh NKD1 (11759106_at) / RFU SRD5A1 (11742802_a_at) / Fold change /veh SRD5A1 (11742802_a_at) / RFU TPSAB1 /// TPSB2 (11721975_s_at) / Fold change /veh TPSAB1 /// TPSB2 (11721975_s_at) / RFU GSTM3 (11746129_a_at) / Fold change /veh GSTM3 (11746129_a_at) / RFU IL23R (11737362_x_at) / Fold change /veh IL23R (11737362_x_at) / RFU TMEM51 (11727254_a_at) / Fold change /veh TMEM51 (11727254_a_at) / RFU PIWIL2 (11732686_x_at) / Fold change /veh PIWIL2 (11732686_x_at) / RFU ORM1 (11744905_x_at) / Fold change /veh ORM1 (11744905_x_at) / RFU CCDC152 (11743942_at) / Fold change /veh CCDC152 (11743942_at) / RFU ECM1 (11717891_a_at) / Fold change /veh ECM1 (11717891_a_at) / RFU IL23R (11748794_a_at) / Fold change /veh IL23R (11748794_a_at) / RFU TNFAIP8L3 (11732012_x_at) / Fold change /veh TNFAIP8L3 (11732012_x_at) / RFU MBOAT4 (11741988_at) / Fold change /veh MBOAT4 (11741988_at) / RFU 11764193_at / Fold change /veh 11764193_at / RFU TMEM53 (11763286_at) / Fold change /veh TMEM53 (11763286_at) / RFU MAGEB2 (11727129_at) / Fold change /veh MAGEB2 (11727129_at) / RFU TMEM200A (11744735_a_at) / Fold change /veh TMEM200A (11744735_a_at) / RFU CCDC152 (11751479_a_at) / Fold change /veh CCDC152 (11751479_a_at) / RFU FAM211A (11726209_a_at) / Fold change /veh FAM211A (11726209_a_at) / RFU RGS16 (11746705_a_at) / Fold change /veh RGS16 (11746705_a_at) / RFU VCAN (11755009_s_at) / Fold change /veh VCAN (11755009_s_at) / RFU RHOB (11743442_s_at) / Fold change /veh RHOB (11743442_s_at) / RFU RGS16 (11720943_a_at) / Fold change /veh RGS16 (11720943_a_at) / RFU RGS16 (11720944_at) / Fold change /veh RGS16 (11720944_at) / RFU, VPS4B / Fold change vs veh, VPS4B / RFU, CREB1 / Fold change vs veh, CREB1 / RFU, DNAJC13 / Fold change vs veh, DNAJC13 / RFU, GNAQ / Fold change vs veh, GNAQ / RFU, CDK5R1 / Fold change vs veh, CDK5R1 / RFU, ZRANB3 / Fold change vs veh, ZRANB3 / RFU, CUL4A / Fold change vs veh, CUL4A / RFU, CCNY / Fold change vs veh, CCNY / RFU, UFL1 / Fold change vs veh, UFL1 / RFU, COG3 / Fold change vs veh, COG3 / RFU, DIAPH2 / Fold change vs veh, DIAPH2 / RFU, SKA2 / Fold change vs veh, SKA2 / RFU, AFF3 / Fold change vs veh, AFF3 / RFU, LMF1 / Fold change vs veh, LMF1 / RFU, IPO11 / Fold change vs veh, IPO11 / RFU, DFFB / Fold change vs veh, DFFB / RFU, FOXP1 / Fold change vs veh, FOXP1 / RFU, CARD8 / Fold change vs veh, CARD8 / RFU, STRN3 / Fold change vs veh, STRN3 / RFU, ADK / Fold change vs veh, ADK / RFU, RASSF2 / Fold change vs veh, RASSF2 / RFU, WIPF1 / Fold change vs veh, WIPF1 / RFU, LARP1B / Fold change vs veh, LARP1B / RFU, RASA1 / Fold change vs veh, RASA1 / RFU, RB1 / Fold change vs veh, RB1 / RFU, PPFIA1 / Fold change vs veh, PPFIA1 / RFU, MAT2A / Fold change vs veh, MAT2A / RFU, CCT5 / Fold change vs veh, CCT5 / RFU, WDR92 / Fold change vs veh, WDR92 / RFU, CUX1 / Fold change vs veh, CUX1 / RFU, TTC7A / Fold change vs veh, TTC7A / RFU, TMEM135 / Fold change vs veh, TMEM135 / RFU, DEPTOR / Fold change vs veh, DEPTOR / RFU, CPM / Fold change vs veh, CPM / RFU, DNAJB6 / Fold change vs veh, DNAJB6 / RFU, CACNA2D3 / Fold change vs veh, CACNA2D3 / RFU, DTX4 / Fold change vs veh, DTX4 / RFU, TFCP2 / Fold change vs veh, TFCP2 / RFU, GMCL1 /// GMCL1P1 / Fold change vs veh, GMCL1 /// GMCL1P1 / RFU, AEBP2 / Fold change vs veh, AEBP2 / RFU, SNHG1 /// SNORD22 /// SNORD25 /// SNORD26 /// SNORD27 /// SNORD28 /// SNORD29 /// SNORD31 / Fold change vs veh, SNHG1 /// SNORD22 /// SNORD25 /// SNORD26 /// SNORD27 /// SNORD28 /// SNORD29 /// SNORD31 / Fold change (Aza/veh), C12orf56 (ProbeSet 11735607_a_at) / Fold change (ACY-1035/veh), C12orf56 (ProbeSet 11735607_a_at) / Fold change (Aza/veh), FGFR1OP (ProbeSet 11751329_s_at) / Fold change (ACY-1035/veh), FGFR1OP (ProbeSet 11751329_s_at) / Fold change (Aza/veh), VPS36 (ProbeSet 11739960_a_at) / Fold change (ACY-1035/veh), VPS36 (ProbeSet 11739960_a_at) / RFU SYPL1 (11715823_x_at) / Fold change /veh SYPL1 (11715823_x_at) / RFU IGFBP7 (11715501_s_at) / Fold change /veh IGFBP7 (11715501_s_at) / RFU REEP3 (11722064_at) / Fold change /veh REEP3 (11722064_at) / RFU IGLL1 (11728026_x_at) / Fold change /veh IGLL1 (11728026_x_at): dose or concentration left out as unconfirmed
Conditions: MV-4-11 cells, 48 hours

Q: How did the “RFU RNFT2 (11725882_a_at)” value turn out when `Nc1ncn([C@@H]2O[C@H](CO)[C@@H](O)[C@H]2O)c(=O)n1` [azacitidine] was run?
A: 15.64 RFU
